# Entries after “also recorded” stand apart in the source; their conditions may differ.
# What was measured:
# Pseudomonas aeruginosa [1] = test: Kirby-Bauer disc diffusion antimicrobial susceptibility testing; type: cell-based
# Pseudomonas aeruginosa [2] = test: Bacterial kill in stripped skin wound of a rodent; type: in vivo; settings: for bactericidal effect on stripped skin wound: topical at various calculated doses, in 48 to 96 hours; for kill of Pseudomonas aeruginosa: topical on stripped skin wound, in 48 hours, both reagents and dose
# Description: Experimental Groups: There were 4 experimental groups. […] Treatment varied by reagent and dosage.
# P. acnes = test: Kirby-Bauer disc diffusion antimicrobial susceptibility testing; type: cell-based
# IGF-1, TGF-β, EGF = test: Local growth factor levels in normal (unstripped, uninfected) mouse skin (Example 4); type: in vivo, mice; settings: 100 μM topical, normal rodent skin
# Experimental: Mice were shaved but unstrapped and uninfected (normal rodent skin). The test reagents were applied topically in an aqueous solution on the unstripped site at two hours and daily on day 1, 2 and 3. Testing reagents consisted of […] and PCA formulated at one dose, 100 μM in an aqueous solution.
# [3] = system: stripped skin wound infected with Pseudomonas aeruginosa (ATCC 27853); test: Histology of stripped, infected and treated mouse skin wound (Example 6); settings: 48 hours; for tissue repair as evidenced by histology: two different doses
# [4] = system: P. aeruginosa (ACTA 27853); test: Mouse tape-stripped skin wound infection model (Example 3); type: in vivo; settings: for bacterial burden: 48 and 96 hours
# Experimental: Mice had back skin tape stripped and the stripped site (wound) was infected with P. aeruginosa (ACTA 27853). The test reagents were applied topically in an aqueous solution on the stripped site at two hours and daily on day 1, 2 and 3.
# C3G, an anthocyanin and its main metabolite PCA were formulated and tested at several doses. The aqueous carrier was water. The C3G formulation included 100 mM and 200 mM dose concentrations and the PCA formulation included 25 and 50 mM dose concentrations.
# [5] = system: P. aeruginosa (ACTA 9027); test: Mouse tape-stripped skin wound infection model (Example 2); type: in vivo; settings: day five; for bacterial burden: topical aqueous 50, 100, 200 mM at two hours and daily for four days, none statistically significant; for most effective dose concentration: topical aqueous
# [6] = system: Staphylococcus aureus ATCC 33591 (MRSA); test: Kirby-Bauer disc diffusion antimicrobial susceptibility testing; type: cell-based
# MRSA = settings: cited from earlier work
# IGF-1, TGE-β, EGF = test: Growth factor levels by ELISA in stripped, infected mouse skin (Example 5); type: in vivo, mice
# Experimental: Four different conditions were used: mice had back skin tape stripped and the stripped site (wound) was infected with P. aeruginosa; mice had back skin stripped and were not infected, mice had taped stripped, infected and treated with PCA, mice were tape stripped, uninfected, and treated with PCA. When used, the PCA test reagent was applied topically in an aqueous solution on the stripped site at two hours and 24 hours.
# The testing reagents consisted of and PCA formulated at one dose, 25 mM, in an aqueous solution. Levels of IGF-1, TGE-β, and EGF levels in the skin tissue at 48 hours were measured by ELISA. There were two control groups: the stripped skin and the stripped skin and infected.
# Pseudomonas = settings: cited from earlier work
# [7] = female, rat, in vivo
# [8] = after ingestion; cited from earlier work
# [9] = rat, in vivo; cited from earlier work
# [10] = human skin; cited from earlier work
# Candida albicans = test: Kirby-Bauer disc diffusion antimicrobial susceptibility testing; type: cell-based
# Description: This example describes the method for testing the antimicrobial susceptibility of anthocyanins, anthocyanidins, or metabolites and compounds thereof. The Kirby-Bauer method of disc diffusion was used for testing, following a standard set of procedures recommended by the NCCLS. In this methodology, a set of discs saturated with either testing compounds or a control was placed on inoculated agar plates. The plates were inoculated with organisms including C. difficile, P. acnes, C. prefringens, L. casei, C. albicans, E. coli, ATTC 8739 and ATCC 43895, S. aureus, S. mutans, S. pyogenes, P. aeruginosa and K. pneumonia. The control sample was amoxicillin, an antimicrobial with very effective broad-spectrum antibiotic properties. Samples included delphinidin, pelargonidin, cyanidin CI, 28% cyanindin-3-glucoside (C3G), protocatechuic acid (PCA) and 2,4,6 Trihydroxybenzaldehyde (2,4,6 THBA).
# After 18, 24, or 48 hours of incubation, depending upon the microorganism, each plate was examined. The diameters of the zones of complete inhibition were measured, including the diameter of the disc. Zones were measured to the nearest millimeter, using sliding calipers. The size of the zones of inhibition was interpreted by referring to NCCLS standard. […]
# [11] = all tested doses (PCA 25, 50 mM; C3G 100, 200 mM)
compound,measurement,setting,value
"CC1(C)S[C@@H]2[C@H](NC(=O)[C@H](N)c3ccc(O)cc3)C(=O)N2[C@H]1C(=O)O [Amoxicillin, amoxicillin, reference compound]",activity against Pseudomonas aeruginosa,Pseudomonas aeruginosa [1],no effect
"OC[C@H]1O[C@@H](Oc2cc3c(O)cc(O)cc3[o+]c2-c2ccc(O)c(O)c2)[C@H](O)[C@@H](O)[C@@H]1O [C3G, Cyanidin 3-glucoside]",bactericidal effect on stripped skin wound,Pseudomonas aeruginosa [2],bactericidal
same,kill of Pseudomonas aeruginosa,Pseudomonas aeruginosa [2],"10,000 fold"
same,activity against P. acnes,P. acnes,bactericidal
same,"all three local growth hormones (IGF-1, TGF-β, EGF)","IGF-1, TGF-β, EGF",decrease of all three local growth hormones
same,dermal layer thickness,[3]; C3G 100 mM,thicker
same,"hair follicles, cellular lining",[3]; C3G 100 mM,single and double cellular lining
same,inflammation,[3]; C3G 100 mM,inflammation in the dermis and muscular layer and below
same,surface cellularity,[3]; C3G 100 mM,multiple cellular covering of the surface
same,vascularity,[3]; C3G 100 mM,prominent
same,dermal layer thickness,[3]; C3G 200 mM,thickened
same,"hair follicles, cellular lining",[3]; C3G 200 mM,single and double cellular lining
same,inflammation,[3]; C3G 200 mM,inflammation in the dermis and muscular layer
same,surface cellularity,[3]; C3G 200 mM,multiple cells thick
same,vascularity,[3]; C3G 200 mM,increased
same,tissue repair as evidenced by histology,[3],stimulated tissue repair
same,bacterial burden,[4]; 100 mM topical,significantly reduced the bacterial burden
same,bacterial burden,[4]; 200 mM topical,significantly reduced the bacterial burden
same,bacterial burden,[4]; [11],decreased the bacterial burden
same,bacterial burden,[5],decreased the bacterial burden
same,most effective dose concentration,[5],100 mM
"O=C(O)c1ccc(O)c(O)c1 [PCA, 3,4 dihydroxybenzoic acid]",activity against Staphylococcus aureus ATCC 33591 (MRSA),[6],effective
same,bactericidal effect on stripped skin wound,Pseudomonas aeruginosa [2],bactericidal
same,kill of Pseudomonas aeruginosa,Pseudomonas aeruginosa [2],"10,000 fold"
same,activity against P. acnes,P. acnes,bactericidal
same,"biofilm destruction, MRSA",MRSA,biofilm destroyer
same,IGF-1 production,"IGF-1, TGE-β, EGF; 25 mM topical at 2 and 24 hours, stripped and infected skin, 48 hours",optimizes the IGF-1 production
same,local growth hormones,"IGF-1, TGE-β, EGF; 25 mM topical, stripped and infected skin",optimizes the local growth hormones
same,EGF response level,"IGF-1, TGE-β, EGF; 25 mM topical, stripped, infected and treated wound vs other groups, 48 hours",lowest
same,activity against Pseudomonas aeruginosa,Pseudomonas aeruginosa [1],some effectiveness
same,"biofilm destruction, Pseudomonas",Pseudomonas,biofilm destroyer
same,human relative dose to exceed safety,[7],"350,000 milligrams per day"
same,duration of metabolism prior to excretion in the urine and feces,[8],eight
same,toxicity,[9],greater than 5000 mg/kg body weight
same,skin irritation,[10],no skin irritation
same,collagen between epidermis and dermis,[3]; PCA 25 mM,collagen proliferation between the epidermis and dermis; also recorded: collagen layer formation between the epidermis and dermis
same,dermal layer thickness,[3]; PCA 25 mM,thickened
same,"hair follicles, cellular lining",[3]; PCA 25 mM,prominent with multiple cellular lining
same,inflammation,[3]; PCA 25 mM,abundant inflammation
same,surface cellularity,[3]; PCA 25 mM,abundant and multiple cell layers
same,vascularity,[3]; PCA 25 mM,"moderate vascularity, but less than that seen in infected untreated group"
same,dermal layer thickness,[3]; PCA 50 mM,thicker
same,"hair follicles, cellular lining",[3]; PCA 50 mM,double layer of cells
same,inflammation,[3]; PCA 50 mM,increased in the dermis and below the muscle layer
same,surface cellularity,[3]; PCA 50 mM,covered with multiple layers of cells
same,vascularity,[3]; PCA 50 mM,increased vascularity
same,tissue repair as evidenced by histology,[3],stimulated tissue repair
same,statistical significance of bacterial burden reduction,[4]; 25 mM topical,statistically significant at 48 hours
same,bacterial burden,[4]; 25 mM topical,reduced the bacterial burden at both time periods
same,bacterial burden,[4]; [11],decreased the bacterial burden
same,bacterial burden,[5],decreased the bacterial burden
same,most effective dose concentration,[5],50 mM
same,susceptibility of Candida albicans,Candida albicans,susceptible
